{"source": "patent US20030092684A1", "about": "“Compositions and methods for treating hemorrhagic virus infections and other disorders” (priority 1999, published 2003)", "key": {"Mononuclear human cells": {"test_system": "Mononuclear human cells", "experiment": "In vitro activation of mononuclear human cells by antibiotics: IL-1RA and sTNFrI production", "format": "cell-based", "conditions": "0.06 mg/ml, activation for 2 hours"}, "TNF-α and IL-1β": {"test_system": "TNF-α and IL-1β", "experiment": "Serum TNF and IL-1 in Dengue infected mice (Example 4)", "format": "in vivo, BALB/c mice", "conditions": "for level of the cytokines in the serum versus control A2 group: 20 mg/kg twice per day from day -3 until day 8"}, "Dengue virus type 2": {"test_system": "Dengue virus type 2", "experiment": "Dengue virus infection treated with tetracycline compounds (Example 4): mortality", "format": "in vivo, BALB/c mice", "conditions": "for % (survival): 20 mice, 20 mg/kg"}, "IL-1RA and sTNFrl": {"test_system": "IL-1RA and sTNFrl", "experiment": "IL-1RA and sTNFrl in human donor serum after oral antibiotic stimulation", "format": "in vivo"}, "[1]": {"conditions": "day 0, 20 mg/kg intramuscularly twice per day from day -3 until day 8"}, "[2]": {"conditions": "day 1, 20 mg/kg intramuscularly twice per day from day -3 until day 8"}, "[3]": {"conditions": "day 3, 20 mg/kg intramuscularly twice per day from day -3 until day 8"}, "[4]": {"conditions": "day 5, 20 mg/kg intramuscularly twice per day from day -3 until day 8"}, "[5]": {"conditions": "day 6, 20 mg/kg intramuscularly twice per day from day -3 until day 8"}, "[6]": {"conditions": "day 7, 20 mg/kg intramuscularly twice per day from day -3 until day 8"}, "[7]": {"conditions": "day 8, 20 mg/kg intramuscularly twice per day from day -3 until day 8"}, "[8]": {"conditions": "day 12, 20 mg/kg intramuscularly twice per day from day -3 until day 8"}, "[9]": {"conditions": "day -1, 20 mg/kg intramuscularly twice per day from day -3 until day 8"}, "[10]": {"conditions": "20 mg/kg intramuscularly twice per day from day -3 until day 8"}, "[11]": {"conditions": "20 mg/kg intramuscularly twice per day from day -3 until day 8, listed as terramycine"}, "[12]": {"conditions": "day 0, 20 mg/kg orally twice per day from day -3 until day 8"}, "[13]": {"conditions": "day 1, 20 mg/kg orally twice per day from day -3 until day 8"}, "[14]": {"conditions": "day 3, 20 mg/kg orally twice per day from day -3 until day 8"}, "[15]": {"conditions": "day 5, 20 mg/kg orally twice per day from day -3 until day 8"}, "[16]": {"conditions": "day 6, 20 mg/kg orally twice per day from day -3 until day 8"}, "[17]": {"conditions": "day 7, 20 mg/kg orally twice per day from day -3 until day 8"}, "[18]": {"conditions": "day 8, 20 mg/kg orally twice per day from day -3 until day 8"}, "[19]": {"conditions": "day 12, 20 mg/kg orally twice per day from day -3 until day 8"}, "[20]": {"conditions": "day -1, 20 mg/kg orally twice per day from day -3 until day 8"}, "[21]": {"conditions": "150 mg orally twice a day, blood taken on the second and third day after beginning"}, "[22]": {"conditions": "after stimulation, 2 persons, on the 24th hour"}, "[23]": {"conditions": "20 mg/kg orally twice per day from day -3 until day 8"}, "[24]": {"conditions": "20 mg/kg orally twice per day from day -3 until day 8, listed as vibromycine"}}}
{"molecule": "CN(C)[C@@H]1C(O)=C(C(N)=O)C(=O)[C@@]2(O)C(O)=C3C(=O)c4c(O)cccc4[C@@](C)(O)[C@H]3[C@H](O)[C@@H]12", "note": "[Terramycine]", "values": [{"measurement": "IL-1RA", "setting": "Mononuclear human cells; 0 hours", "result": "28 + 1.6 pg/ml"}, {"measurement": "sTNFrI", "setting": "Mononuclear human cells; 0 hours", "result": "18 + 1.4 pg/ml"}, {"measurement": "IL-1RA", "setting": "Mononuclear human cells; 3 hours", "result": "93 + 6.2 pg/ml"}, {"measurement": "sTNFrI", "setting": "Mononuclear human cells; 3 hours", "result": "313 + 10.4 pg/ml"}, {"measurement": "IL-1RA", "setting": "Mononuclear human cells; 6 hours", "result": "220 + 9.4 pg/ml"}, {"measurement": "sTNFrI", "setting": "Mononuclear human cells; 6 hours", "result": "224 + 9.2 pg/ml"}, {"measurement": "IL-1RA", "setting": "Mononuclear human cells; 24 hours", "result": "185 + 8.6 pg/ml"}, {"measurement": "sTNFrI", "setting": "Mononuclear human cells; 24 hours", "result": "264 + 9.6 pg/ml"}, {"measurement": "level of the cytokines in the serum versus control A2 group", "setting": "TNF-α and IL-1β", "result": "statistically lower"}, {"measurement": "increase of the concentration of IL-1", "setting": "TNF-α and IL-1β; by day 3 of the disease, stayed until day 7, 20 mg/kg intramuscularly twice per day", "result": 16, "unit": "fold"}, {"measurement": "increase of the concentration of TNF", "setting": "TNF-α and IL-1β; by day 6 of the disease, 20 mg/kg intramuscularly twice per day", "result": 2, "unit": "fold"}, {"measurement": "IL-1", "setting": "TNF-α and IL-1β; [1]", "result": 7.0, "unit": "pg/mL"}, {"measurement": "TNF", "setting": "TNF-α and IL-1β; [1]", "result": 17.0, "unit": "pg/mL"}, {"measurement": "IL-1", "setting": "TNF-α and IL-1β; [2]", "result": 21.8, "unit": "pg/mL"}, {"measurement": "TNF", "setting": "TNF-α and IL-1β; [2]", "result": 15.2, "unit": "pg/mL"}, {"measurement": "IL-1", "setting": "TNF-α and IL-1β; [3]", "result": 112.0, "unit": "pg/mL"}, {"measurement": "TNF", "setting": "TNF-α and IL-1β; [3]", "result": 25.6, "unit": "pg/mL"}, {"measurement": "IL-1", "setting": "TNF-α and IL-1β; [4]", "result": 84.0, "unit": "pg/mL"}, {"measurement": "TNF", "setting": "TNF-α and IL-1β; [4]", "result": 26.0, "unit": "pg/mL"}, {"measurement": "IL-1", "setting": "TNF-α and IL-1β; [5]", "result": 80.0, "unit": "pg/mL"}, {"measurement": "TNF", "setting": "TNF-α and IL-1β; [5]", "result": 36.2, "unit": "pg/mL"}, {"measurement": "IL-1", "setting": "TNF-α and IL-1β; [6]", "result": 76.0, "unit": "pg/mL"}, {"measurement": "TNF", "setting": "TNF-α and IL-1β; [6]", "result": 28.0, "unit": "pg/mL"}, {"measurement": "IL-1", "setting": "TNF-α and IL-1β; [7]", "result": 42.0, "unit": "pg/mL"}, {"measurement": "TNF", "setting": "TNF-α and IL-1β; [7]", "result": 20.0, "unit": "pg/mL"}, {"measurement": "IL-1", "setting": "TNF-α and IL-1β; [8]", "result": 16.0, "unit": "pg/mL"}, {"measurement": "TNF", "setting": "TNF-α and IL-1β; [8]", "result": 18.0, "unit": "pg/mL"}, {"measurement": "IL-1", "setting": "TNF-α and IL-1β; [9]", "result": 7.2, "unit": "pg/mL"}, {"measurement": "TNF", "setting": "TNF-α and IL-1β; [9]", "result": 18.8, "unit": "pg/mL"}, {"measurement": "m.t.d.", "setting": "Dengue virus type 2; [10]", "result": "m.t.d. = 6.53 days"}, {"measurement": "m.t.d.", "setting": "Dengue virus type 2; [11]", "result": 6.53, "unit": "days"}, {"measurement": "% (survival)", "setting": "Dengue virus type 2; [10]", "result": "% (survival) 15"}, {"measurement": "% (survival)", "setting": "Dengue virus type 2; [11]", "result": 15, "unit": "%"}, {"measurement": "Survival/total amount", "setting": "Dengue virus type 2; [1]", "result": "20/20"}, {"measurement": "Survival/total amount", "setting": "Dengue virus type 2; [2]", "result": "20/20"}, {"measurement": "Survival/total amount", "setting": "Dengue virus type 2; [3]", "result": "20/20"}, {"measurement": "Survival/total amount", "setting": "Dengue virus type 2; [4]", "result": "19/20"}, {"measurement": "Survival/total amount", "setting": "Dengue virus type 2; [5]", "result": "11/20"}, {"measurement": "Survival/total amount", "setting": "Dengue virus type 2; [6]", "result": "6/20"}, {"measurement": "Survival/total amount", "setting": "Dengue virus type 2; [7]", "result": "3/20"}, {"measurement": "Survival/total amount", "setting": "Dengue virus type 2; [8]", "result": "3/20"}, {"measurement": "Survival/total amount", "setting": "Dengue virus type 2; [9]", "result": "20/20"}]}
{"molecule": "CC1c2cccc(O)c2C(=O)C2=C(O)C3(O)C(=O)C(C(N)=O)=C(O)C(N(C)C)C3C(O)C21", "note": "(stereo not shown) [Vybromycine]", "values": [{"measurement": "increase of the concentration of TNF", "setting": "TNF-α and IL-1β; 20 mg/kg orally twice per day", "result": 3, "unit": "fold"}, {"measurement": "level of the cytokines in the serum versus control A2 group", "setting": "TNF-α and IL-1β", "result": "statistically lower"}, {"measurement": "increase of the concentration of IL-1", "setting": "TNF-α and IL-1β; by day 6 of the infection, 20 mg/kg orally twice per day", "result": 12, "unit": "fold"}, {"measurement": "IL-1", "setting": "TNF-α and IL-1β; [12]", "result": 7.0, "unit": "pg/mL"}, {"measurement": "TNF", "setting": "TNF-α and IL-1β; [12]", "result": 18.8, "unit": "pg/mL"}, {"measurement": "IL-1", "setting": "TNF-α and IL-1β; [13]", "result": 11.6, "unit": "pg/mL"}, {"measurement": "TNF", "setting": "TNF-α and IL-1β; [13]", "result": 12.6, "unit": "pg/mL"}, {"measurement": "IL-1", "setting": "TNF-α and IL-1β; [14]", "result": 60.0, "unit": "pg/mL"}, {"measurement": "TNF", "setting": "TNF-α and IL-1β; [14]", "result": 10.8, "unit": "pg/mL"}, {"measurement": "IL-1", "setting": "TNF-α and IL-1β; [15]", "result": 62.0, "unit": "pg/mL"}, {"measurement": "TNF", "setting": "TNF-α and IL-1β; [15]", "result": 16.0, "unit": "pg/mL"}, {"measurement": "IL-1", "setting": "TNF-α and IL-1β; [16]", "result": 84.4, "unit": "pg/mL"}, {"measurement": "TNF", "setting": "TNF-α and IL-1β; [16]", "result": 34.0, "unit": "pg/mL"}, {"measurement": "IL-1", "setting": "TNF-α and IL-1β; [17]", "result": 64.0, "unit": "pg/mL"}, {"measurement": "TNF", "setting": "TNF-α and IL-1β; [17]", "result": 30.6, "unit": "pg/mL"}, {"measurement": "IL-1", "setting": "TNF-α and IL-1β; [18]", "result": 30.0, "unit": "pg/mL"}, {"measurement": "TNF", "setting": "TNF-α and IL-1β; [18]", "result": 26.0, "unit": "pg/mL"}, {"measurement": "IL-1", "setting": "TNF-α and IL-1β; [19]", "result": 17.8, "unit": "pg/mL"}, {"measurement": "TNF", "setting": "TNF-α and IL-1β; [19]", "result": 22.2, "unit": "pg/mL"}, {"measurement": "IL-1", "setting": "TNF-α and IL-1β; [20]", "result": 7.0, "unit": "pg/mL"}, {"measurement": "TNF", "setting": "TNF-α and IL-1β; [20]", "result": 20.4, "unit": "pg/mL"}, {"measurement": "concentration in the human serum of IL-1RA", "setting": "IL-1RA and sTNFrl; [21]", "result": 184, "unit": "pg/mL"}, {"measurement": "concentration in the human serum of sTNFrl", "setting": "IL-1RA and sTNFrl; [21]", "result": 950, "unit": "pg/mL"}, {"measurement": "IL-1RA in the donor serum", "setting": "IL-1RA and sTNFrl; [22]", "result": "126.8 ± 6.8", "unit": "pg/mL"}, {"measurement": "sTNFrl in the donor serum", "setting": "IL-1RA and sTNFrl; [22]", "result": "970 ± 28.6", "unit": "pg/mL"}, {"measurement": "IL-1RA in the donor serum", "setting": "IL-1RA and sTNFrl; before the stimulation", "result": "20 ± 2.2", "unit": "pg/mL"}, {"measurement": "sTNFrl in the donor serum", "setting": "IL-1RA and sTNFrl; before the stimulation", "result": "22 ± 3.4", "unit": "pg/mL"}, {"measurement": "m.t.d.", "setting": "Dengue virus type 2; [23]", "result": "m.t.d. = 6.7 days"}, {"measurement": "m.t.d.", "setting": "Dengue virus type 2; [24]", "result": 6.7, "unit": "days"}, {"measurement": "% (survival)", "setting": "Dengue virus type 2; [23]", "result": "% (survival) 20"}, {"measurement": "% (survival)", "setting": "Dengue virus type 2; [24]", "result": 20, "unit": "%"}, {"measurement": "Survival/total amount", "setting": "Dengue virus type 2; [12]", "result": "20/20"}, {"measurement": "Survival/total amount", "setting": "Dengue virus type 2; [13]", "result": "20/20"}, {"measurement": "Survival/total amount", "setting": "Dengue virus type 2; [14]", "result": "20/20"}, {"measurement": "Survival/total amount", "setting": "Dengue virus type 2; [15]", "result": "19/20"}, {"measurement": "Survival/total amount", "setting": "Dengue virus type 2; [16]", "result": "15/20"}, {"measurement": "Survival/total amount", "setting": "Dengue virus type 2; [17]", "result": "5/20"}, {"measurement": "Survival/total amount", "setting": "Dengue virus type 2; [18]", "result": "4/20"}, {"measurement": "Survival/total amount", "setting": "Dengue virus type 2; [19]", "result": "4/20"}, {"measurement": "Survival/total amount", "setting": "Dengue virus type 2; [20]", "result": "20/20"}]}
